According to the supplement of paper PMC10627819:

Tests used:
B. subtilis 168 = test: Bliss interaction score (quartile over a dose matrix) (fitness difference); higher = more antagonism (negative = synergy)
Method in brief: (§1)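 Quartiles summarise the Bliss score over technical, biological and donor/recipient replicates, where the score is observed minus expected fitness under a product model. Expected fitness uses single-drug values inferred from combination data. Fitness is OD595 at entry into stationary phase over the plate's robust no-drug mean, capped at 1.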

S. pneumoniae D39V = test: as above
Method in brief: as §1

S. aureus DSM 20231 [1] = test: as above
Method in brief: as §1

S. aureus Newman [2] = test: as above
Method in brief: as §1

S. aureus DSM 20231 [3] = test: fitness (endpoint OD595 vs no drug) (fraction); higher = more growth
Method in brief: (§2)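 In 384-well plates at 37 °C, cultures began at OD595 0.01 in 30 µl, with 55 µl used for S. pneumoniae. OD595 readings every 30 min for 14 h were corrected by the first reading. Fitness divides the stationary-phase transition optical density by the robust mean of no-drug control wells. The result is capped at 1.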

S. aureus Newman [4] = test: as above
Method in brief: as §2
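Throughout, for Bliss interaction score (quartile over a dose matrix): first quartile when negative (synergy) and third quartile when positive (antagonism).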

O=C(N[C@H](CO)[C@H](O)c1ccc([N+](=O)[O-])cc1)C(Cl)Cl [Chloramphenicol] + C[n+]1ccc(-c2cc[n+](C)cc2)cc1 [Paraquat]
Conditions	Bliss interaction score
B. subtilis 168	0.0402
S. aureus DSM 20231 [1]	0.0604
S. aureus Newman [2]	-0.058
S. pneumoniae D39V	0.0595

fitness
Conditions	first compound 0.75 µg/mL	first compound 1.5 µg/mL	first compound 3 µg/mL
S. aureus DSM 20231 [3], partner 1.25 µg/mL	0.684	0.564	0.121
S. aureus DSM 20231 [3], partner 2.5 µg/mL	0.711	0.626	0.159
S. aureus DSM 20231 [3], partner 5 µg/mL	0.688	0.618	0.158
S. aureus Newman [4], partner 1.25 µg/mL	0.724	0.423	0.164
S. aureus Newman [4], partner 2.5 µg/mL	0.715	0.429	0.15
S. aureus Newman [4], partner 5 µg/mL	0.739	0.476	–

O=C(N[C@H](CO)[C@H](O)c1ccc([N+](=O)[O-])cc1)C(Cl)Cl [Chloramphenicol] + Cc1cc(NS(=O)(=O)c2ccc(N)cc2)no1 [Sulfamethoxazol]
Conditions	Bliss interaction score
B. subtilis 168	0.0483
S. aureus DSM 20231 [1]	-0.0341
S. aureus Newman [2]	0.0702
S. pneumoniae D39V	-0.0682

fitness
Conditions	first compound 0.75 µg/mL	first compound 1.5 µg/mL	first compound 3 µg/mL
S. aureus DSM 20231 [3], partner 1 µg/mL	0.614	0.541	0.115
S. aureus DSM 20231 [3], partner 2 µg/mL	0.652	0.526	0.102
S. aureus DSM 20231 [3], partner 4 µg/mL	0.709	0.49	–
S. aureus Newman [4], partner 1 µg/mL	0.837	0.583	0.199
S. aureus Newman [4], partner 2 µg/mL	0.899	0.652	0.172
S. aureus Newman [4], partner 4 µg/mL	0.909	0.647	0.179

S. aureus Newman [4], partner 8 µg/mL, one replicate
Conditions	fitness
first compound 0.75 µg/mL	0.889
first compound 1.5 µg/mL	0.694
first compound 3 µg/mL	0.35

O=C(N[C@H](CO)[C@H](O)c1ccc([N+](=O)[O-])cc1)C(Cl)Cl [Chloramphenicol] + Cc1onc(-c2ccccc2)c1C(=O)N[C@@H]1C(=O)N2[C@@H]1SC(C)(C)[C@@H]2C(=O)O [Oxacillin]
Conditions	Bliss interaction score
B. subtilis 168	-0.0473
S. aureus DSM 20231 [1]	0.0696
S. aureus Newman [2]	0.0445
S. pneumoniae D39V	0.0937

fitness
Conditions	first compound 0.75 µg/mL	first compound 1.5 µg/mL	first compound 3 µg/mL
S. aureus DSM 20231 [3], partner 0.0156 µg/mL	0.677	0.461	–
S. aureus DSM 20231 [3], partner 0.0312 µg/mL	0.6	0.392	0.113
S. aureus DSM 20231 [3], partner 0.0625 µg/mL	0.489	0.478	0.0972
S. aureus Newman [4], partner 0.0156 µg/mL	0.734	0.573	0.253
S. aureus Newman [4], partner 0.0312 µg/mL	0.617	0.484	0.143
S. aureus Newman [4], partner 0.0625 µg/mL	0.555	0.359	–

O=C(N[C@H](CO)[C@H](O)c1ccc([N+](=O)[O-])cc1)C(Cl)Cl [Chloramphenicol] + Cn1nnc(-c2ccc(-c3ccc(N4C[C@H](CO)OC4=O)cc3F)cn2)n1 [Tedizolid]
Conditions	Bliss interaction score
B. subtilis 168	-0.101
S. aureus DSM 20231 [1]	-0.157
S. aureus Newman [2]	-0.179
S. pneumoniae D39V	-0.068

fitness
Conditions	partner 0.0625 µg/mL	partner 0.125 µg/mL	partner 0.25 µg/mL
S. aureus DSM 20231 [3], first compound 0.75 µg/mL	0.584	0.538	0.189
S. aureus DSM 20231 [3], first compound 1.5 µg/mL	0.412	0.285	0.168
S. aureus DSM 20231 [3], first compound 3 µg/mL	0.0827	0.07	0.0466
S. aureus Newman [4], first compound 3 µg/mL	–	0.095	0.0603

CCC[C@@H]1C[C@@H](C(=O)N[C@@H]([C@H]2O[C@H](SC)[C@H](O)[C@@H](O)[C@H]2O)[C@H](C)Cl)N(C)C1 [Clindamycin] + CCCCCCCCCC(=O)N[C@@H]1[C@H]([C@@H]([C@H](O[C@H]1OC2=C3C=C4C=C2OC5=C(C=C(C=C5)[C@H]([C@H]6C(=O)N[C@@H](C7=C(C(=CC(=C7)O)OC8[C@H]([C@H]([C@@H]([C@H](O8)CO)O)O)O)C9=C(C=CC(=C9)[C@H](C(=O)N6)NC(=O)[C@@H]4NC(=O)[C@@H]1C2=CC(=CC(=C2)OC2=C(C=CC(=C2)[C@H](C(=O)N[C@H](CC2=CC(=C(O3)C=C2)Cl)C(=O)N1)N)O)O)O)C(=O)O)O[C@H]1[C@@H]([C@H]([C@@H]([C@H](O1)CO)O)O)NC(=O)C)Cl)CO)O)O [Teicoplanin]
main component drawn
Conditions	Bliss interaction score
B. subtilis 168	-0.117
S. aureus DSM 20231 [1]	0.0389
S. aureus Newman [2]	0.137
S. pneumoniae D39V	-0.0604

fitness, main component drawn
Conditions	partner 0.1562 µg/mL	partner 0.3125 µg/mL	partner 0.625 µg/mL
S. aureus DSM 20231 [3], first compound 0.125 µg/mL	0.0489	0.0449	0.0526
S. aureus Newman [4], first compound 0.0312 µg/mL	0.679	0.864	0.854
S. aureus Newman [4], first compound 0.0625 µg/mL	0.448	0.431	0.483
S. aureus Newman [4], first compound 0.125 µg/mL	0.0629	0.0636	0.0614

fitness, S. aureus Newman [4], one replicate, main component drawn
Conditions	first compound 0.0312 µg/mL	first compound 0.0625 µg/mL	first compound 0.125 µg/mL
partner 0.62 µg/mL	0.86	0.74	0.358
partner 1.24 µg/mL	0.938	0.839	0.307
partner 2.48 µg/mL	0.755	0.726	0.154
